According to US4791139A, “Diphenyl ether derivatives and their use as insecticides” (Imperial Chemical Industries PLC, priority 1986, dated 1988):

Assays:
Assay type in all cases: in vivo
[1] = tested on: Tetranychus urticae (spider mites - adult); assay: Contact test, spider mites - adult (TUa), French bean leaf; settings: 72 h, 3 days, read-out: TUA grading of mortality
Outline: (§1)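 Product dissolved in acetone, then diluted with water holding 0.1% by weight wetting agent to give 100 to 500 ppm preparations. Pests were held on a host plant or foodstuff, and pests and/or medium were treated. Mortality was assessed one to seven days after treatment.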

[2] = tested on: Tetranychus urticae (spider mites - ova); assay: Contact test, spider mites - ova (TUe), French bean leaf; settings: 144 h, 6 days, read-out: TUE grading of mortality
Outline: as §1

Myzus persicae (aphids) = assay: Contact test, aphids (MP), Chinese Cabbage leaf; settings: 72 h, 3 days, read-out: MP grading of mortality
Outline: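 Aphids on a host plant and/or the plant itself were treated with 100–500 ppm of product, applied from acetone diluted in water containing 0.1% SYNPERONIC NX wetting agent. Mortality was scored usually one to seven days after treatment.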

[3] = tested on: Nilaparvata lugens (brown plant hopper - nymphs); assay: Contact test, brown plant hopper - nymphs (NL), Rice plant; settings: 72 h, 3 days, read-out: NL grading of mortality
Outline: as §1

[4] = tested on: Musca domestica (houseflies - adults); assay: Knockdown test, houseflies - adults (MD/KD), Cotton wool/sugar; settings: 4 hours, read-out: MD/KD grading of knockdown
Outline: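 Product was dissolved in acetone and diluted with water containing 0.1% wetting agent to 100–500 ppm. The flies and/or their food medium were treated with the preparation. Mortality was scored 1–7 days after treatment, with an additional knockdown assessment for houseflies.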

[5] = tested on: Musca domestica (houseflies - adults); assay: Contact test, houseflies - adults (MD), Cotton wool/sugar; settings: 24 h, 1 day, read-out: MD grading of mortality
Outline: as §1

[6] = tested on: Blattella germanica (cockroach nymphs); assay: Residual test, cockroach nymphs (BG), Plastic pot; settings: 72 h, 3 days, read-out: BG grading of mortality
Outline: as §1

[7] = tested on: Heliothis virescens (tobacco budworm - larvae); assay: Residual test, tobacco budworm - larvae (HV), Cotton leaf; settings: 72 h, read-out: HV grading of mortality
Outline: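 Products applied as acetone solutions diluted in water with 0.1% wetting agent, at 100–500 ppm; pests on host plant or food, with pests and/or medium treated. Mortality or knockdown scored 1–7 days after treatment and graded A (80–100%), B (50–79%) or C (<50%).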

[8] = tested on: Diabrotica balteata (rootworm larvae); assay: Residual test, rootworm larvae (DB), Filter paper/maize seed; settings: 72 h, 3 days, read-out: DB grading of mortality
Outline: as §1

[9] = tested on: Meloidogyne incognita (Tomato root knot eelworm - larvae); assay: Residual test, Tomato root knot eelworm - larvae (MI), Semi in-vitro; settings: 168 h, application rate is half that recorded, 7 days, read-out: MI grading of mortality; for mortality at 125 µg/mL: rate 250 ppm
[10] = tested on: Chilo partellus (Maize stemborer - larvae); assay: Residual test, Maize stemborer - larvae (CP), Oilseed rape; settings: 72 h, 3 days, read-out: CP grading of mortality
Protocol: (§2) The activity of the Product was determined using a variety of insect pests. The Product was used in the form of liquid preparations containing from 100 to 500 parts per million (ppm) by weight of the Product. The preparations were made by dissolving the Product in acetone and diluting the solutions with water containing 0.1% by weight of a wetting agent sold under the trade name "SYNPERONIC" NX until the liquid preparations contained the required concentration of the Product. "SYNPERONIC" is a Registered Trade Mark.
(§3) The test procedure adopted with regard to each pest was basically the same and comprised supporting a number of the pests on a medium which was usually a host plant or a foodstuff on which the pests feed, and treating either or both the pests and the medium with the preparations. The mortality of the pests was then assessed at periods usually varying from one to seven days after the treatment.
(§4) The results of the tests are given in Table III for each of the Products, at the rate in parts per million given in the second column as a grading of mortality designated as A, B or C wherein A indicates 80-100% mortality or knockdown (70-100% for Meloidogyne incognita), B indicates 50-79% mortality knockdown or knockdown (50-69% for Meloidogyne incognita) and C indicates less than 50% mortality or knockdown.
In Table III the pest organism used is designated by a letter code and the pests species, the support medium or food, and the type and duration of test is given in Table II.
(Maize stemborer - larvae)

[11] = tested on: Spodoptera exigua (lesser army worm - larvae); assay: Residual test, lesser army worm - larvae (SP), Cotton leaf; settings: 72 h, 500 ppm, 3 days, read-out: SP grading of mortality
Outline: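 Compound dissolved in acetone and diluted in water with 0.1% Synperonic NX wetting agent to 100–500 ppm. Pests on host plant or food, with pests and/or medium treated. Mortality assessed 1–7 days after treatment and graded A (80–100%), B (50–79%) or C (<50%).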

Nephotettix cincticeps = assay: Contact test, leaf hopper in place of Nilaparvata lugens (NL**), Rice plant; settings: 72 h, 500 ppm, 3 days, read-out: NL** grading of mortality (Nephotettix cincticeps)
Protocol: as §2, §3
as §4, with “knockdown. […]” for “knockdown.”

| Compound | mortality at 250 ppm [1] [%] | mortality at 250 ppm [2] [%] | mortality at 250 ppm (Myzus persicae (aphids)) [%] | mortality at 250 ppm [3] [%] | pest or weed control at 250 ppm [4] [%] | mortality at 250 ppm [5] [%] | mortality at 250 ppm [6] [%] | mortality at 250 ppm [7] [%] | mortality at 250 ppm [8] [%] | mortality at 125 µg/mL [9] [%] | mortality at 250 ppm [10] [%] | further results |
| --- | --- | --- | --- | --- | --- | --- | --- | --- | --- | --- | --- | --- |
| FC(F)(F)Oc1ccc(C(=CCCc2cccc(Oc3ccccc3)c2)C(F)(F)F)cc1 [Compound 7, 5-(3-phenoxyphenyl)-2-(4-trifluoromethoxyphenyl)-1,1,1-trifluoropent-2-ene] | 80 to 100 | 80 to 100 | 80 to 100 | 80 to 100 | < 50 | 50 to 79 | 80 to 100 | 80 to 100 | 80 to 100 | < 50 | 80 to 100 |  |
| CC(C)(C)c1ccc(C(CCCc2cccc(Oc3ccccc3)c2)C(F)(F)F)cc1 (racemic) [Compound 8, 1,1,1-Trifluoro-2-[4-(2-methylprop-2-yl)phenyl]-5-(3-phenoxyphenyl)pentane] | < 50 | < 50 | < 50 | < 50 | < 50 | < 50 | 80 to 100 | 80 to 100 | 80 to 100 | 70 to 100 | 80 to 100 |  |
| Fc1ccc(CCCC(c2ccc(OC(F)(F)F)cc2)C(F)(F)F)cc1Oc1ccccc1 (racemic) [Compound 20, 1,1,1-Trifluoro-2-(4-trifluoromethoxyphenyl)-5-(4-fluoro-3-phenoxyphenyl)pentane] |  |  |  |  |  |  |  |  |  |  |  | mortality at 100 ppm ([1]; 100 ppm): 50 to 79%; mortality at 100 ppm ([2]; 100 ppm): 80 to 100%; mortality at 100 ppm (Myzus persicae (aphids); 100 ppm): 80 to 100%; mortality at 100 ppm ([3]; 100 ppm): 80 to 100%; pest or weed control at 100 ppm ([4]; 100 ppm): 80 to 100%; mortality at 100 ppm ([5]; 100 ppm): 80 to 100%; mortality at 100 ppm ([6]; 100 ppm): 80 to 100%; mortality at 100 ppm [7]: 80 to 100%; mortality at 100 ppm ([8]; 100 ppm): 80 to 100%; mortality at 50 µg/mL ([9]; rate column 100 ppm): < 50%; mortality at 100 ppm ([10]; 100 ppm): 80 to 100% |
| CCOc1ccc(/C(=C\C=C/c2ccc(F)c(Oc3ccccc3)c2)C(F)(F)F)cc1 [Compound 37, 1,1,1-trifluoro-2-(4-ethoxyphenyl)-5-(4-fluoro-3-phenoxyphenyl)penta-2,4-diene] | < 50 | < 50 | < 50 | < 50 | < 50 | < 50 | 50 to 79 | < 50 | < 50 | < 50 | < 50 |  |
| Fc1ccc(CCC=C(c2ccc(OC(F)(F)F)cc2)C(F)F)cc1Oc1ccccc1 [Compound 26, 1,1-Difluoro-2-(4-trifluoromethoxyphenyl)-5-(4-fluoro-3-phenoxyphenyl)pent-2-ene] |  |  |  |  |  |  |  |  |  |  |  | mortality at 500 ppm ([1]; 500 ppm): 80 to 100%; mortality at 500 ppm (Myzus persicae (aphids); 500 ppm): 80 to 100%; pest or weed control at 500 ppm ([4]; 500 ppm): 80 to 100%; mortality at 500 ppm ([5]; 500 ppm): 80 to 100%; mortality at 500 ppm ([6]; 500 ppm): 80 to 100%; mortality at 500 ppm [7]: 80 to 100%; mortality at 500 ppm [11]: 80 to 100%; mortality at 500 ppm ([8]; 500 ppm): 50 to 79%; mortality at 500 ppm (Nephotettix cincticeps): 80 to 100% |
| CCOc1ccc(C(CC=Cc2ccc(F)c(Oc3ccccc3)c2)C(F)(F)F)cc1 (stereo not drawn) [Compound 32, 1,1,1-Trifluoro-2-(4-ethoxyphenyl)-5-(4-fluoro-3-phenoxyphenyl)pent-4-ene] | 50 to 79 | < 50 | 80 to 100 | 80 to 100 | 80 to 100 | 80 to 100 | 80 to 100 | 80 to 100 | 80 to 100 | < 50 | 80 to 100 |  |
| CC(C)(C)c1ccc(C(=CCCc2cccc(Oc3ccccc3)c2)C(F)(F)F)cc1 [Compound 6, 2-[4-(2-methylprop-2-yl)phenyl]-5-(3-phenoxyphenyl)-1,1,1-trifluoropent-2-ene] | < 50 | < 50 | < 50 | < 50 | < 50 | < 50 | 80 to 100 | < 50 | < 50 | 70 to 100 | 80 to 100 |  |
| CCOc1ccc(C(CCCc2cccc(Oc3ccccc3)c2)C(F)(F)C(F)(F)F)cc1 (racemic) [Compound 11, 1,1,1,2,2-Pentafluoro-3-(4-ethoxyphenyl)-6-(3-phenoxyphenyl)hexane] | < 50 | < 50 | < 50 | < 50 | 80 to 100 | < 50 | < 50 | < 50 | < 50 | < 50 | < 50 |  |
| FC(F)(F)Oc1ccc(C(CCCc2cccc(Oc3ccccc3)c2)C(F)(F)F)cc1 (racemic) [Compound 9, 1,1,1-Trifluoro-2-(4-trifluoromethoxyphenyl)-5-(3-phenoxyphenyl)pentane] | 80 to 100 | 80 to 100 | 80 to 100 | 80 to 100 | 80 to 100 | 80 to 100 | 80 to 100 | 80 to 100 | 80 to 100 | < 50 | 80 to 100 |  |
| CCOc1ccc(C(C/C=C\c2cccc(Oc3ccccc3)c2)C(F)(F)F)cc1 (stereo not drawn) [Compound 35, 1,1,1-trifluoro-2-(4-ethoxyphenyl)-5-(3-phenoxyphenyl)pent-4-ene] | 80 to 100 | < 50 | 80 to 100 | 80 to 100 | 80 to 100 | 80 to 100 | 80 to 100 | 80 to 100 | 80 to 100 | < 50 | 80 to 100 |  |
